Test results: publication PMC6231127, “The structure of the deubiquitinase USP15 reveals a misaligned catalytic triad and an open ubiquitin-binding channel” (The Journal of Biological Chemistry, 2018)

What was measured:
[1] = biological target: T1, USP15-D1D2 (Homo sapiens, UniProt Q9Y4E8, DEL469-785); assay: X-ray crystal structure of complex, […] Å; assay type: binding; details: co-crystal, 0.1 M Na-Hepes pH 7.0, 14% MPD, 20 °C; S1' site near BL2 loop; ligand density in one of two copies
T1 construct: two copies in the asymmetric unit

[2] = biological target: T2, FL-USP15 (Homo sapiens, UniProt Q9Y4E8); assay: linear diubiquitin gel shift cleavage assay (SDS-PAGE, ImageJ); assay type: biochemical
T2 sequence (Q9Y4E8 2-952 isoform Q9Y4E8-2): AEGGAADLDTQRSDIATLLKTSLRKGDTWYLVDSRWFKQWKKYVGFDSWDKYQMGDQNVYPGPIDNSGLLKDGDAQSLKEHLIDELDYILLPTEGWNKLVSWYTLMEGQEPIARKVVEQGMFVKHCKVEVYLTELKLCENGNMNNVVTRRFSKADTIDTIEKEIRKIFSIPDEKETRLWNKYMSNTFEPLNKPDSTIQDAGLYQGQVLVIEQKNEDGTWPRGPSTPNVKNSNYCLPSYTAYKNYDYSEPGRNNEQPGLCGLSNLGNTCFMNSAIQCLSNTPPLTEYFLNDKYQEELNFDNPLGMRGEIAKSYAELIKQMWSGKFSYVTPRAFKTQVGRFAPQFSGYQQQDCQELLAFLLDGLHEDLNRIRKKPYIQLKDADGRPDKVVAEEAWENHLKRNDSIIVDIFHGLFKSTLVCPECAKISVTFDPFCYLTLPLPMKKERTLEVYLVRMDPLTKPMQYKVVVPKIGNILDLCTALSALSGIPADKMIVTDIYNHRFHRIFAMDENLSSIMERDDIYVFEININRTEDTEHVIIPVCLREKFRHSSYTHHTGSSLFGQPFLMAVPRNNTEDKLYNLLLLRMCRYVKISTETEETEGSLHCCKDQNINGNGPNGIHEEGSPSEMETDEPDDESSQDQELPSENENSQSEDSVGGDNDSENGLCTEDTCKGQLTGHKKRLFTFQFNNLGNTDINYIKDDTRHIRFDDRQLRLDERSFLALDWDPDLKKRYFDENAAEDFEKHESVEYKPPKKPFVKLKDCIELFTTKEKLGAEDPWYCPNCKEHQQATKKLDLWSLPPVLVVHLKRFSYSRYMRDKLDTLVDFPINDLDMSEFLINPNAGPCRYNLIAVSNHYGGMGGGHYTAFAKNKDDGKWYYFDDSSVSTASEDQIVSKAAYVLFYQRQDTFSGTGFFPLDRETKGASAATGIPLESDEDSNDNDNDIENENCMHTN

In the case of `O=C1c2c(O)ccc(O)c2C(=O)c2c(NCCNCCO)ccc(NCCNCCO)c21` [mitoxantrone, 1,4-dihydroxy-5,8-bis[2-(2-hydroxyethylamino)ethylamino]anthracene-9,10-dione], the “X-ray crystal structure of complex, 2.09 Å” value [1] is reported as “This USP15–mitoxantrone complex structure revealed predominantly hydrophobic interactions between mitoxantrone and USP15 residues” and the IC50 [2] is reported as 33 ± 11 µM.
